The values that follow come from patent EP0252482A2, “7-Acyloxy-6-aminoacyloxypolyoxylabdanes, process for their preparation and their use as medicine” (HOECHST AKTIENGESELLSCHAFT, priority 1986, dated 1988).

SMILES strings stand for the structures. Structures can show the parent of a compound that is named as a salt.

One experiment has as its system Katzen. The experiment can be described thus: Blood pressure in the anaesthetised cat (femoral artery), i.v. administration. The following applies: Katze, Dosis 3 mg/kg. It counts as in vivo. The procedure:
1. Blutdruck an der Katze: Katzen beiderlei Geschlechts von 3 bis 4 kg Gewicht wurden mit Äther narkotisiert und unter Chloralose-Narkose (70 mg/kg, i.v.) gehalten. Sowohl die Oberschenkelarterie als auch -vene wurden zur Aufzeichnung des Blutdrucks und zur Verabreichung von Medikamenten kanüliert. Der Blutdruck in der Oberschenkelarterie wurde über einen Messwandler Statham 23 Db auf einem physiologischen Nihon-Kohden-Registriergerät aufgezeichnet. Die zu prüfende Verbindung wurde in destilliertem Wasser gelöst und intravenös verabreicht, und der Blutdruckabfall und die Dauer der blutdrucksenkenden Wirkung wurden notiert.
Die mit diesem Modell für typische erfindungsgemäße Verbindungen erhaltenen Resultate sind in der nachfolgenden Tabelle angegeben: […]

Another experiment deals with Beagle-Hunde. Description: Blood pressure, heart rate and left ventricular dp/dt in the anaesthetised beagle dog, i.v. administration. Format: in vivo. The following applies: Hund; for Blutdruckabfall: Natriumpentobarbital; for % Zunahme in dp/dt max: left ventricle. The procedure: 2. Blutdruck am Hund: Methode: Beagle-Hunde beiderlei Geschlechts (Gewicht im Bereich 10 bis 15 kg) wurden mit Natriumpentobarbital narkotisiert (35 mg/kg, i.v.). Nach Einführung eines Endotrachealrohrs wurden sowohl die Oberschenkelarterie als auch die -vene zur Aufnahme des Blutdrucks und zur Verabreichung der Verbindung kanüliert. Der Druck im linken Ventrikel wurde mit einem Katheterspitzen-Messwandler (Millar-Kathether) gemessen und über einen Hugo Sachs-Differentiator differenziert. Sämtliche Methoden wurden auf einem Hellige-Schreibgerät mit sechs Kanälen aufgezeichnet. Die Elektrokardiogrammsignale wurden auf einem Becton-Dickinson-Gerät verfolgt.
Eine einprozentige Lösung der erfindungsgemäßen Verbindung in destilliertem Wasser wurde hergestellt und in verschiedenen Dosierungen intravenös verabreicht.

As to `C=CC1(C)CC(=O)C2(O)C(C)(O1)C(OC(=O)CC)C(OC(=O)CN1CCCCC1)C1C(C)(C)CCC(O)C12C` (stereo not drawn) [C2H5, 1α,9α-Dihydroxy-8,13-epoxy-6ß-piperidino acetoxy-7ß-propionyloxy-labd-14-en-11-on hydrochlorid], the results for the Blutdruckabfall in the experiment on Katzen (Chloralose-Narkose), with Beagle-Hunde (Dosis 0.3 mg/kg) and with Beagle-Hunde (Dosis 1.0 mg/kg) were 30 mm Hg, 10 mm Hg and 46 mm Hg, respectively. Further, the Dauer in the experiment on Katzen (duration of hypotensive effect) is greater than 120 min; with Beagle-Hunde (Dosis 0.3 mg/kg), 10 min; with Beagle-Hunde (Dosis 1.0 mg/kg) it was 60 min. In the experiment on Beagle-Hunde (Dosis 1.0 mg/kg), the Pulszunahme entry is “+19 Pulsschläge pro Min”. The “% Zunahme in dp/dt max” value was “+38%” with Beagle-Hunde (Dosis 0.3 mg/kg) and “+65%” in the experiment on Beagle-Hunde (Dosis 1.0 mg/kg).
